Data on 23 compounds can be found in patent US20240316038A1, “APOL1 INHIBITORS AND METHODS OF USE” (Maze Therapeutics, Inc., priority 2021, published 2024).

Assay [1] addresses T1, APOL1 G2 (Homo sapiens, UniProt O14791, DEL388-389).
T1 construct: expressed in transfected cells; host or cells: HEK293 T-REx clonal lines: HEK T-REx/GCaMP6f/APOL1 G2 K6.3 in A1, HEK293/T-REx APOL1 G2/clone #2 in A2
T1 sequence (O14791 with tags, fused parts or gaps DEL388-389): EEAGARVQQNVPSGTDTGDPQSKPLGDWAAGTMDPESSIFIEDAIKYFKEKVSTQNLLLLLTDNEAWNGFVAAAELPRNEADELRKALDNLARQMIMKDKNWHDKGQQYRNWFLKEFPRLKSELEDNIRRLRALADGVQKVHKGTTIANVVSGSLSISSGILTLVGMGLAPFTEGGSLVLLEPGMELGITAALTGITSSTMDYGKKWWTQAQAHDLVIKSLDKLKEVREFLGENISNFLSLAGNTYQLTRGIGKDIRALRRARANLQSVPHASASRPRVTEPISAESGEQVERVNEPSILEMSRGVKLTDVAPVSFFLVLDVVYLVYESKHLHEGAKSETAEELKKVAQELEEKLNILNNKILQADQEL
Kind of assay: APOL1 calcium transport inhibition assay (GCaMP6f calcium influx, FLIPR) in HEK T-REx/GCaMP6f/APOL1 G2 K6.3 cells. It counts as cell-based. The settings on record: inhibition of APOL1-mediated calcium influx; geometric mean of at least 2 assay runs, † = single assay run (technical duplicate). In outline: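 HEK293 cells stably expressing GCaMP6f, APOL1 G2 induced 6 h with doxycycline (20 ng/mL added), then washed into Ca2+-free Tyrode's buffer pH 7.4. Compounds (8-point dose response) preincubated 10 min at room temperature, then Ca2+ injected to 5 mM final and influx read on FLIPR. AC50 reported as geometric mean of runs.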

For assay [2], the target named is T1, APOL1 G2. In words: Rescue of HEK293 cell death caused by overexpression of APOL1 (CellTiter-Glo luminescence), HEK293/T-REx APOL1 G2/clone #2. It is filed as cell-based. The settings on record: reversal of cell death caused by overexpression of APOL1; geometric mean of at least 2 assay runs, † = single assay run (technical duplicate). Summed up:
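Rescue EC50s come from four-parameter logistic fits, geometric mean of at least 2 runs on separate days, each in duplicate. Readout: CellTiter-Glo luminescence after 17 h at 37 °C of 5,000 HEK293/T-REx APOL1 G2 clone #2 cells/well, with 6 ng/mL doxycycline to induce APOL1 and 3-fold serial compound dilutions in 0.5% DMSO.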
For orientation: In ATP-based viability assays light output follows the ATP content of the culture.

As usually defined, the AC50 is the concentration at which the activity in the assay is half-maximal. Usually EC50 stands for the concentration at which the effect is half-maximal.

With `C[C@@H]1CN(CCc2cc(Cl)cc(C#N)c2)C[C@H]1COc1ccc(S(=O)(=O)CCCS(C)(=O)=O)cc1` [Compound 167, 3-chloro-5-{2-[(3S,4S)-3-{[4-(3-methanesulfonylpro-panesulfonyl)phe-noxy]methyl}-4-methylpyrrolidin-1-yl]ethyl}benzonitrile], on APOL1 G2 [1], the AC50 came out at 314 nM. The EC50 on APOL1 G2 [2] was 67.2 nM.
The corresponding values for `C[C@@H]1CN(CCc2cccc(C#N)c2)C[C@H]1COc1ccc(S(=O)(=O)CCCS(C)(=O)=O)cc1` [Compound 168, 3-{2-[(3S,4S)-3-{[4-(3-methanesulfonylpro-panesulfonyl)phe-noxy]methyl}-4-methylpyrrolidin-1-yl]ethyl}benzonitrile] are 179 nM and 126 nM.
The corresponding values for `CN=S(C)(=O)c1ccc(OC[C@@H]2CN(CCc3cccc(C#N)c3)C[C@H]2C)cc1` (stereo partly drawn) [Compound 169, 3-{2-[(3S,4S)-3-methyl-4-({4-[methyl(methyli-mino)oxo-λ^6-sulfanyl]phenoxy}methyl)pyrrolidin-1-yl]ethyl}benzonitrile] are 79.7 nM and 182 nM.
The corresponding values for `C[C@@H]1CN(CCc2cccc(C#N)c2)C[C@H]1COc1ccc(S(=O)(=O)C2CNC2)cc1` [Compound 172, 3-{2-[(3S,4S)-3-{[4-(azetidine-3-sulfonyl)phenoxy]methyl}-4-methylpyrrolidin-1-yl]ethyl}benzonitrile] are 104 nM and 203 nM.
As to `C[C@@H]1CN(CCc2cc(Cl)cc(C#N)c2)C[C@H]1COc1ccc(S(=O)(=O)C2CNC2)cc1` [Compound 173, 3-{2-[(3S,4S)-3-{[4-(azetidine-3-sulfonyl)phenoxy]methyl}-4-methylpyrrolidin-1-yl]ethyl}-5-chlorobenzonitrile], at APOL1 G2 [1], the AC50 came to 491 nM. Also, on APOL1 G2 [2], the EC50 was found to be 201 nM.
The like results for `C[C@@H]1CN(CCc2cc(Cl)cc(C#N)c2)C[C@H]1COc1ccc(S(=O)(=O)CCO)cc1` [Compound 174, 3-chloro-5-{2-[(3S,4S)-3-{[4-(2-hydroxyethanesul-fonyl)phenoxy]meth-yl}-4-methylpyrrolidin-1-yl]ethyl}benzonitrile] were, in that order, 157 nM and 36.1 nM.
On to `C[C@@H]1CN(CCc2cc(F)cc(Cl)c2)C[C@H]1COc1ccc(S(C)(=O)=O)cc1` [Compound 181, (3S,4S)-1-[2-(3-chloro-5-fluorophenyl)ethyl]-3-[(4-methanesulfonylphenoxy)methyl]-4-methylpyrrolidine], for which, at APOL1 G2 [1], the AC50 was less than 96.1 nM. In addition, the EC50 on APOL1 G2 [2] was found to be 325 nM.
Consider `N#Cc1cc(Cl)cc(CCN2CCN[C@H](COc3ccc(S(=O)(=O)CCO)cc3)C2)c1` [Compound 182, 3-chloro-5-{2-[(3S)-3-{[4-(2-hydroxyethane-sulfonyl)phenoxy]methyl}pi-perazin-1-yl]ethyl}benzo-nitrile], for which the AC50 at APOL1 G2 [1] amounted to 396 nM. The EC50 at APOL1 G2 [2] stood at 399 nM.
The like results for `CC(C)(CO)S(=O)(=O)c1ccc(OC[C@@H]2CN(CCc3cc(Cl)cc(C#N)c3)CCN2)cc1` [Compound 183, 3-chloro-5-{2-[(3S)-3-{[4-(1-hydroxy-2-methylpropane-2-sulfonyl)phenoxy]methyl}pi-perazin-1-yl]ethyl}benzo-nitrile] were, in that order, 149 nM and 157 nM.
The like results for `CS(=O)(=O)CCCS(=O)(=O)c1ccc(OC[C@@H]2CN(CCc3cccc(Cl)c3)CCN2)cc1` [Compound 184, (3S)-1-[2-(3-chlorophenyl)ethyl]-3-{[4-(3-methanesulfonylpropanesulfonyl)phenoxy]methyl}piperazine] were, in that order, 215 nM and 622 nM.
The corresponding values for `O=S(=O)(c1ccc(OC[C@@H]2CN(CCc3cccc(Cl)c3)CCN2)cc1)C1CNC1` [Compound 185, (3S)-3-{[4-(azetidine-3-sulfonyl)phenoxy]methyl}-1-[2-(3-chlorophenyl)ethyl]piperazine] are 322 nM and 239 nM.
Consider `CN=S(C)(=O)c1ccc(OC[C@@H]2CN(CCc3cc(Cl)cc(C#N)c3)CCN2)cc1` (stereo partly drawn) [Compound 186, 3-chloro-5-{2-[(3S)-3-({4-[methyl(methyl-imino)oxo-λ^6-sulfanyl]pheno-xy}methyl)pipera-zin-1-yl]ethyl}benzo-nitrile], for which, at APOL1 G2 [1], the AC50 was 6980 nM. For the same compound, the EC50 on APOL1 G2 [2] was determined as 631 nM.
The corresponding values for `CS(=O)(=O)c1ccc(OC[C@@H]2CN(CCc3cc(Cl)cc(C#N)c3)CCN2)cc1` [Compound 189, 3-chloro-5-{2-[(3S)-3-[(4-methanesulfonylphenoxy)methyl]piperazin-1-yl]ethyl}benzonitrile] are 634 nM and 922 nM.
In the case of `CS(=O)(=O)c1ccc(OC[C@@H]2CN(CCc3cc(Cl)cc(Cl)c3)CCN2)cc1` [Compound 190, (3S)-1-[2-(3,5-dichlorophenyl)ethyl]-3-[(4-methanesulfonylphenoxy)methyl]piperazine], the AC50 at APOL1 G2 [1] stood at 170 nM. Moreover, the EC50 on APOL1 G2 [2] stood at 291 nM.
On to `COc1ccc(Cl)cc1CCN1CCN[C@H](COc2ccc(S(C)(=O)=O)cc2)C1` [Compound 191, (3S)-1-[2-(5-chloro-2-methoxyphenyl)ethyl]-3-[(4-methanesulfonylphenoxy)methyl]piperazine], for which the AC50 at APOL1 G2 [1] stood at 228 nM. In addition, at APOL1 G2 [2], the EC50 was found to be 663 nM.
The like results for `CS(=O)(=O)c1ccc(OC[C@@H]2CN(CCc3cc(Cl)ccc3OC(F)F)CCN2)cc1` [Compound 192, (3S)-1-{2-[5-chloro-2-(difluoromethoxy)phenyl]eth-yl}-3-[(4-methanesulfonylphenoxy)methyl]piperazine] were, in that order, 260 nM and 915 nM.
The like results for `CS(=O)(=O)c1ccc(OC[C@@H]2CN(CCc3cc(C#N)cc(C(F)(F)F)c3)CCN2)cc1` [Compound 193, 3-{2-[(3S)-3-[(4-methanesulfonylphenoxy)methyl]piperazin-1-yl]ethyl}-5-(trifluoromethyl)benzonitrile] were, in that order, 1450 nM and 782 nM.
For the compound `C[C@@H]1CN(CCc2cc(Cl)cc(C#N)c2)C[C@H]1COc1ccc(S(C)(=O)=O)cc1` [Compound 194, 3-chloro-5-{2-[(3S,4S)-3-[(4-methanesulfonylphenoxy)methyl]-4-methylpyrrolidin-1-yl]ethyl}benzonnitrile], the AC50 at APOL1 G2 [1] was 151 nM. Also, on APOL1 G2 [2], the EC50 was 107 nM.
The corresponding values for `C[C@@H]1CN(CCc2cc(F)cc(C#N)c2)C[C@H]1COc1ccc(S(C)(=O)=O)cc1` [Compound 195, 3-fluoro-5-{2-[(3S,4S)-3-[(4-methanesulfonylphenoxy)methyl]-4-methylpyrrolidin-1-yl]ethyl}benzonitrile] are 236 nM and 226 nM.
Consider `C[C@@H]1CN(CCc2cc(Br)cc(C#N)c2)C[C@H]1COc1ccc(S(C)(=O)=O)cc1` [Compound 196, 3-bromo-5-{2-[(3S,4S)-3-[(4-methanesulfonylphenoxy)methyl]-4-methylpyrrolidin-1-yl]ethyl}benzonitrile], for which the AC50 on APOL1 G2 [1] was 108 nM. For the same compound, the EC50 on APOL1 G2 [2] amounted to 110 nM.
Consider `Cc1ccc(Cl)cc1CCN1CCN[C@H](COc2ccc(S(C)(=O)=O)cc2)C1` [Compound 197, (3S)-1-[2-(5-chloro-2-methylphenyl)ethyl]-3-[(4-methanesulfonylphenoxy)methyl]piperazine], for which, on APOL1 G2 [1], the AC50 came out at 334 nM. For the same compound, the EC50 at APOL1 G2 [2] came to 369 nM.
For `Cc1cc(C#N)cc(CCN2C[C@@H](COc3ccc(S(C)(=O)=O)cc3)[C@H](C)C2)c1` [Compound 198, 3-{2-[(3S,4S)-3-[(4-methanesulfonylphenoxy)methyl]-4-methylpyrrolidin-1-yl]ethyl}-5-methylbenzonitrile], the AC50 on APOL1 G2 [1] came to 197 nM. The EC50 on APOL1 G2 [2] stood at 71.5 nM.
The like results for `CC1CNC(COc2ccc(S(C)(=O)=O)cc2)CN1CCc1cccc(Cl)c1` (stereo not shown) [Compound 211, 1-[2-(3-chlorophenyl)ethyl]-5-[(4-methanesulfonylphenoxy)methyl]-2-methylpiperazine] were, in that order, less than 118 nM and 1360 nM.
